# Test results as given in paper PMC12406203 (Journal of Medicinal Chemistry, 2025).
# Values joined by “and” are separate entries in the source; they are usually repeats but may differ in a detail not shown here. Equal values may be shown once.
# Columns and labels:
# [1] = tested on: p38δ
# [2] = tested on: MAPKAPK5
# [3] = tested on: PIK3CA
# [4] = tested on: ZAP70
# [5] = tested on: YANK3
# [6] = tested on: SRPK3
# [7] = tested on: DCAMKL1
# [8] = tested on: BRAF(V600E)
# [9] = in vitro; details: PAMPA, pH 7.4
# [10] = target: human p38α MAPK (Homo sapiens, UniProt Q16539); assay: biochemical
# Protocol: The inhibitory activities against human p38α MAPK were evaluated using the commercially available ADP-Glo Kinase Assay (Promega, Inc., USA).
# For the reference sample, 1% [v/v] DMSO replaced the inhibitor solution. […] The enzyme reaction was started with the addition of the enzyme solution. The DMSO concentration in the test solution was maintained at 1% [v/v]. The plate was incubated for 60 min. Then 5 μL of ADP-Glo reagent was added, followed by a 40 min incubation at room temperature. […] All incubations were performed at room temperature. The RA and IC50 values were calculated as described above (ChEs inhibitory potency).
# [11] = tested on: CDK7
# [12] = tested on: JAK2(JH1domain-catalytic)
# [13] = tested on: PAK2
# [14] = target: T1, CSNK1D (Homo sapiens, UniProt P48730); assay: KINOMEscan; assay type: binding
# T1 construct: purchased Eurofins DiscoverX, LLC; host or cells: E. coli (T7 phage) or HEK-293
# [15] = target: T2, JNK2 (Homo sapiens, UniProt P45984); assay: KINOMEscan; assay type: binding
# T2 construct: purchased Eurofins DiscoverX, LLC; host or cells: E. coli (BL21-derived, T7 phage) or HEK-293
# [16] = target: T3, MET (Homo sapiens, UniProt P08581); assay: KINOMEscan; assay type: binding
# T3 construct: purchased Eurofins DiscoverX, LLC; host or cells: E. coli (BL21-derived, T7 phage) or HEK-293
# [17] = target: T4, YANK3 (Homo sapiens, UniProt Q86UX6); assay: KINOMEscan; assay type: binding
# T4 construct: purchased Eurofins DiscoverX, LLC; host or cells: E. coli BL21-derived host (T7 phage) or HEK-293
# [18] = target: T5, PLK1 (Homo sapiens, UniProt P53350); assay: KINOMEscan; assay type: binding
# T5 construct: purchased Eurofins DiscoverX, LLC; host or cells: E. coli BL21-derived host (T7 phage) or HEK-293
# [19] = target: T6, PIM3 (Homo sapiens, UniProt Q86V86); assay: KINOMEscan; assay type: binding
# T6 construct: purchased Eurofins DiscoverX, LLC; host or cells: E. coli BL21-derived host (T7 phage) or HEK-293
# [20] = tested on: AURKA
# [21] = tested on: p38γ
# [22] = tested on: EGFR(L858R)
# [23] = tested on: PKACα
# [24] = tested on: PBMCs; assay: Cytokine release from PHA-stimulated PBMCs; assay type: cell-based, human; details: for production of pro-inflammatory cytokines IL-8, IL-1β, IL-6, IL-10, and TNF-α: 1, 2.5, and 5 μM, 18 h
# Protocol: Human PBMCs from healthy donors were isolated from heparinized blood by density gradient centrifugation with Ficoll-Paque. The isolated cells were washed twice with PBS, resuspended in RPMI 1640 medium (Sigma-Aldrich, St. Louis, MO, USA) supplemented with 10% heat-inactivated fetal bovine serum (Gibco), 2 mM L-glutamine (Sigma-Aldrich), 100 U/mL penicillin (Sigma-Aldrich), and 100 μg/mL streptomycin (Sigma-Aldrich), and used in the assays.
# Peripheral blood mononuclear cells were seeded (500,000 cells/well) in 24-well plates in 500 μL of growth medium and treated with compounds 94, 95, and neflamapimod (1, 2.5, and 5 μM) in the presence or absence of PHA (1 μg/mL) or the corresponding vehicle (0.1% DMSO). Cell-free supernatants were collected after 18 h of incubation (37 °C, 5% CO2) and stored at −80 °C until tested. Cytokine production was determined with BD Cytometric Bead Array human inflammatory cytokines kit (BD Bioscience) on an Attune NxT flow cytometer (Thermo Fisher Scientific, Waltham, MA, USA). Standard curves were generated using recombinant cytokines contained in the kit. The data were analyzed using the FlowJo (Tree Star, Inc., Ashland, OR, USA) and Prism (GraphPad Prism 6.0, GraphPad Software) software.
# [25] = target: hBChE
# [26] = tested on: LKB1
# [27] = tested on: TSSK1B
# [28] = tested on: TRKA
# [29] = tested on: CDK11
# [30] = p38α MAPK IC50, IC50 expressed as concentration in ng/mL
# [31] = p38α MAPK IC50 ± SEM, two independent experiments, each in triplicate
# T1 sequence (P48730 whole entry): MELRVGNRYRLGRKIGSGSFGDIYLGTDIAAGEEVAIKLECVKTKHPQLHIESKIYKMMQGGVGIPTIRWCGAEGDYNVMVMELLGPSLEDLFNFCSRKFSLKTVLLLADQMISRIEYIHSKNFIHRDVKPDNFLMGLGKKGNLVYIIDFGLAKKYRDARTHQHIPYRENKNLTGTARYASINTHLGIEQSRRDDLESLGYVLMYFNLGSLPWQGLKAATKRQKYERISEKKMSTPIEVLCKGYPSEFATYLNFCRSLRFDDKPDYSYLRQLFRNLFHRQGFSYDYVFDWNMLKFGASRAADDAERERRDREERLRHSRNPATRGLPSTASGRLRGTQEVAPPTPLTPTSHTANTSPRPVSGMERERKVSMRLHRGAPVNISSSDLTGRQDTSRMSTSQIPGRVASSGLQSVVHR
# T2 sequence (P45984 whole entry): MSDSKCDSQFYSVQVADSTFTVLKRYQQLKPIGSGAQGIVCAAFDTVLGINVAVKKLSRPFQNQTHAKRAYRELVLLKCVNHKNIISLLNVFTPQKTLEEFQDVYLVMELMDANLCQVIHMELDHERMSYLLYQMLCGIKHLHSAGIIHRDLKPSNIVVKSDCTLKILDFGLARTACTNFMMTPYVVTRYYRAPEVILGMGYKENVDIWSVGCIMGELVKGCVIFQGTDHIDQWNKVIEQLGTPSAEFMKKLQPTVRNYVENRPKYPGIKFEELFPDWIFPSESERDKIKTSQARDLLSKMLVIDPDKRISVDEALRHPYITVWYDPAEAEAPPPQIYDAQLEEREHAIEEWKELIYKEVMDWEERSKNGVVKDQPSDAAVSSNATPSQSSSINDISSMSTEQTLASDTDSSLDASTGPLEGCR
# T3 sequence (P08581 25-1390): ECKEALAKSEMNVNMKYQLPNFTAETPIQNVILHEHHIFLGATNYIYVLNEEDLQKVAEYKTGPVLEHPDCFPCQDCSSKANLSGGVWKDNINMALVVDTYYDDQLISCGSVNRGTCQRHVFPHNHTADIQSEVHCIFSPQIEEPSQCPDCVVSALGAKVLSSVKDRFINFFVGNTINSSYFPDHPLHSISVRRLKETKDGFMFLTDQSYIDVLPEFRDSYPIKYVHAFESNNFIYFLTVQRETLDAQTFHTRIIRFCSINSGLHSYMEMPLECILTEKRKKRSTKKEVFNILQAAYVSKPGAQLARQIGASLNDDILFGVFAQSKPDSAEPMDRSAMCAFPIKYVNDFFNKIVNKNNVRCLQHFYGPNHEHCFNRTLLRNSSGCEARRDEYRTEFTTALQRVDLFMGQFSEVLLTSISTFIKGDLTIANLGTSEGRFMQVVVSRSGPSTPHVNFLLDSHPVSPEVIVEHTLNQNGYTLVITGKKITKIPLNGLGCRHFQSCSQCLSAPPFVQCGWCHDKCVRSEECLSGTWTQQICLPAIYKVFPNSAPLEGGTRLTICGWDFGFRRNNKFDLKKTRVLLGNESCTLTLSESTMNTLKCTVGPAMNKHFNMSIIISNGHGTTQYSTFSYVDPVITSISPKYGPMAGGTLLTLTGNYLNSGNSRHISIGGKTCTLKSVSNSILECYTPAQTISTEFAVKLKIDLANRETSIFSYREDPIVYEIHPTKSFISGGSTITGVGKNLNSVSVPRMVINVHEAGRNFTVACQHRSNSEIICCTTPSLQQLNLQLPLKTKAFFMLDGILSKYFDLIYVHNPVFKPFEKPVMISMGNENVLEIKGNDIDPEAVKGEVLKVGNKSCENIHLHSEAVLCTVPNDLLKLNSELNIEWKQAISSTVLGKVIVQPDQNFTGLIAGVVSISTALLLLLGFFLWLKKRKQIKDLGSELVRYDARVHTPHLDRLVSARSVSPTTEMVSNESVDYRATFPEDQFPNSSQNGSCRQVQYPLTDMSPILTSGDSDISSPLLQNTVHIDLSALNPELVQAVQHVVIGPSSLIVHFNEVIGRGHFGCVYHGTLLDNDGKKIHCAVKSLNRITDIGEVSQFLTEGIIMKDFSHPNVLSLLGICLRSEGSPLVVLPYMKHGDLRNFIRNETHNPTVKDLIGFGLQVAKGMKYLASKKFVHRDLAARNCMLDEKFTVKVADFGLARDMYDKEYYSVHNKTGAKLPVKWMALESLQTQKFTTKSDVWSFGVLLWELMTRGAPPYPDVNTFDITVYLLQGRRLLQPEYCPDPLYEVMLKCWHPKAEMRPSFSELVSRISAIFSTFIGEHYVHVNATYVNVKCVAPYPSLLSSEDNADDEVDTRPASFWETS
# T4 sequence (Q86UX6 whole entry): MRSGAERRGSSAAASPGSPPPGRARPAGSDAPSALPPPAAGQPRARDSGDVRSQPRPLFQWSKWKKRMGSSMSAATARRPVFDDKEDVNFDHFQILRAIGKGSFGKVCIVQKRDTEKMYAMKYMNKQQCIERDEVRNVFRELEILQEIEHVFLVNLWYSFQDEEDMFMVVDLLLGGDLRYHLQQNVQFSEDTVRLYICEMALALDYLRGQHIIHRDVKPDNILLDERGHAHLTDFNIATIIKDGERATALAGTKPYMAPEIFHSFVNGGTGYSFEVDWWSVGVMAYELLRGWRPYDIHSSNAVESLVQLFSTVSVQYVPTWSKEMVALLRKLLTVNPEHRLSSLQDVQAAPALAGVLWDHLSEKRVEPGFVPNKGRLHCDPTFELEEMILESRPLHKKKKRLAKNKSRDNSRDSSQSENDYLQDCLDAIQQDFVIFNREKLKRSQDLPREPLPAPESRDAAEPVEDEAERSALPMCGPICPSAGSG
# T5 sequence (P53350 whole entry): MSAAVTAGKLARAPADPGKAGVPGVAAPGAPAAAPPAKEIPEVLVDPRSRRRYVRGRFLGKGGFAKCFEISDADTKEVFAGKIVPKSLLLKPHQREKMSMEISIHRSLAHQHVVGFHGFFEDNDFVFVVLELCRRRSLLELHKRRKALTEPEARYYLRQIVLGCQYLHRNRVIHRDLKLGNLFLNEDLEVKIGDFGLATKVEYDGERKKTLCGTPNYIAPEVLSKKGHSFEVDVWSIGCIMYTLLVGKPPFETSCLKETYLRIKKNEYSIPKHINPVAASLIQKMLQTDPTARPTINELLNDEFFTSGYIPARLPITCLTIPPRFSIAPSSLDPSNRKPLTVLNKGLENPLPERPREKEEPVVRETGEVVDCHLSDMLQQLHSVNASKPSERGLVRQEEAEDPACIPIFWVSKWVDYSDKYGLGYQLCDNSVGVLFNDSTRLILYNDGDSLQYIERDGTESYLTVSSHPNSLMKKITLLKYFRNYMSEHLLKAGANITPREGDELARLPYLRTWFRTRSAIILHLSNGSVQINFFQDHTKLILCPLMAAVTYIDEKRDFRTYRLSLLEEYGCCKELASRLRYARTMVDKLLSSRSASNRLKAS
# human p38α MAPK, sequence (Q16539 whole entry): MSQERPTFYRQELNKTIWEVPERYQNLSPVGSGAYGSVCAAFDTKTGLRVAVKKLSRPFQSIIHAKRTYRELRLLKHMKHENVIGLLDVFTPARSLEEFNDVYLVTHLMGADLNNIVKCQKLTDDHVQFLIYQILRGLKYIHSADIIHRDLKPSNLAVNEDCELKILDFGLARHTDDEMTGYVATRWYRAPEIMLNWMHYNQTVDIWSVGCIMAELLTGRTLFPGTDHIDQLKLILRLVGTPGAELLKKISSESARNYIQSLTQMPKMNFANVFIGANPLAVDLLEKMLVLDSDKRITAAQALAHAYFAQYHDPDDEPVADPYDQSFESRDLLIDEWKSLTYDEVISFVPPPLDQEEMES
compound,measurement,setting,value
"CN(C)CCNC(=O)c1cc2c(cnn2CC2CCCCC2)cc1Cc1ccc(F)cc1F [Compound 95, 1-(Cyclohexylmethyl)-5-(2,4-difluorobenzyl)-N-(2-(dimethylamino)ethyl)-1H-indazole-6-carboxamide]",RA @ 1000nM,[1],100%
same,RA @ 10000nM,[1],100%
same,RA @ 1000nM,[2],100%
same,RA @ 10000nM,[2],100%
same,RA @ 1000nM,[3],100%
same,RA @ 10000nM,[3],100%
same,RA @ 1000nM,[4],100%
same,RA @ 10000nM,[4],100%
same,RA @ 1000nM,[5],100%
same,RA @ 10000nM,[5],100%
same,RA @ 1000nM,[6],92%
same,RA @ 10000nM,[6],99%
same,RA @ 1000nM,[7],100%
same,RA @ 10000nM,[7],100%
same,RA @ 1000nM,[8],98%
same,RA @ 10000nM,[8],100%
same,Papp,[9],13.2 ×10⁻⁶ cm/s
same,IC50,[10]; [30],191 nM
same,IC50,[10]; [31],191 ± 21 nM
same,RA @ 1000nM,[11],88%
same,RA @ 10000nM,[11],77%
same,RA @ 1000nM,[12],100%
same,RA @ 10000nM,[12],100%
same,RA @ 1000nM,[13],100%
same,RA @ 10000nM,[13],95%
same,RA @ 1000nM,[14],93%
same,RA @ 10000nM,[14],84%
same,RA @ 1000nM,[15],44%
same,RA @ 10000nM,[15],3.8%
same,RA @ 1000nM,[16],100%
same,RA @ 10000nM,[16],100%
same,RA @ 1000nM,[17],100%
same,RA @ 10000nM,[17],100%
same,RA @ 1000nM,[18],100%
same,RA @ 10000nM,[18],100%
same,RA @ 1000nM,[19],100%
same,RA @ 10000nM,[19],100%
same,RA @ 1000nM,[20],95%
same,RA @ 10000nM,[20],93%
same,RA @ 1000nM,[21],100%
same,RA @ 10000nM,[21],99%
same,RA @ 1000nM,[22],100%
same,RA @ 10000nM,[22],100%
same,RA @ 1000nM,[23],100%
same,RA @ 10000nM,[23],94%
same,production of IL-12,[24],"increased, albeit at a low level"
same,"production of pro-inflammatory cytokines IL-8, IL-1β, IL-6, IL-10, and TNF-α",[24],significantly inhibited
same,IC50,[25],772 nM and 350 ng/mL
same,RA @ 1000nM,[26],100%
same,RA @ 10000nM,[26],86%
same,RA @ 1000nM,[27],100%
same,RA @ 10000nM,[27],79%
same,RA @ 1000nM,[28],100%
same,RA @ 10000nM,[28],92%
same,RA @ 1000nM,[29],92%
same,RA @ 10000nM,[29],100%
"CC(C)Cn1ncc2cc(Cc3ccc(F)cc3F)c(C(=O)NCCN(C)C)cc21 [Compound 94, 5-(2,4-Difluorobenzyl)-N-(2-(dimethylamino)ethyl)-1-isobutyl-1H-indazole-6-carboxamide]",RA @ 1000nM,[1],97%
same,RA @ 10000nM,[1],100%
same,RA @ 1000nM,[2],100%
same,RA @ 10000nM,[2],100%
same,RA @ 1000nM,[3],77%
same,RA @ 10000nM,[3],95%
same,RA @ 1000nM,[4],100%
same,RA @ 10000nM,[4],79%
same,RA @ 1000nM,[5],100%
same,RA @ 10000nM,[5],100%
same,RA @ 1000nM,[6],77%
same,RA @ 10000nM,[6],100%
same,RA @ 1000nM,[7],100%
same,RA @ 10000nM,[7],100%
same,RA @ 1000nM,[8],100%
same,RA @ 10000nM,[8],100%
same,Papp,[9],10.4 ×10⁻⁶ cm/s
same,IC50,[10]; [30],376 nM
same,IC50,[10]; [31],377 ± 123 nM
same,RA @ 1000nM,[11],79%
same,RA @ 10000nM,[11],86%
same,RA @ 1000nM,[12],98%
same,RA @ 10000nM,[12],100%
same,RA @ 1000nM,[13],100%
same,RA @ 10000nM,[13],97%
same,RA @ 1000nM,[14],86%
same,RA @ 10000nM,[14],79%
same,RA @ 1000nM,[15],52%
same,RA @ 10000nM,[15],8.3%
same,RA @ 1000nM,[16],96%
same,RA @ 10000nM,[16],100%
same,RA @ 1000nM,[17],100%
same,RA @ 10000nM,[17],100%
same,RA @ 1000nM,[18],100%
same,RA @ 10000nM,[18],100%
same,RA @ 1000nM,[19],100%
same,RA @ 10000nM,[19],100%
same,RA @ 1000nM,[20],96%
same,RA @ 10000nM,[20],93%
same,RA @ 1000nM,[21],93%
same,RA @ 10000nM,[21],94%
same,RA @ 1000nM,[22],100%
same,RA @ 10000nM,[22],66%
same,RA @ 1000nM,[23],100%
same,RA @ 10000nM,[23],96%
same,production of IL-12,[24],"increased, albeit at a low level"
same,"production of pro-inflammatory cytokines IL-8, IL-1β, IL-6, IL-10, and TNF-α",[24],significantly inhibited
same,IC50,[25],652 nM and 270 ng/mL
same,RA @ 1000nM,[26],100%
same,RA @ 10000nM,[26],96%
same,RA @ 1000nM,[27],77%
same,RA @ 10000nM,[27],89%
same,RA @ 1000nM,[28],98%
same,RA @ 10000nM,[28],94%
same,RA @ 1000nM,[29],100%
same,RA @ 10000nM,[29],89%
